Laboratory results published in ChEMBL document CHEMBL5465560, “Selectivity Literature for EUbOPEN Chemogenomic Library” (2024).
Values belong to the compound of their own block, whether it stands above or below them.

Tests used:
[1] = molecular target: Cyclin-dependent kinase 13 (Homo sapiens, UniProt Q14004); assay: Selectivity interaction (KinomeScan (DiscoverX)) EUB0000666a CDK13; conditions: at 10 µM
[2] = molecular target: T1, Serine/threonine-protein kinase Chk1 (Homo sapiens) (UniProt O14757); assay: Selectivity interaction (KinomeScan (DiscoverX)) EUB0000666a CHEK1; conditions: at 10 µM
T1 sequence (whole entry): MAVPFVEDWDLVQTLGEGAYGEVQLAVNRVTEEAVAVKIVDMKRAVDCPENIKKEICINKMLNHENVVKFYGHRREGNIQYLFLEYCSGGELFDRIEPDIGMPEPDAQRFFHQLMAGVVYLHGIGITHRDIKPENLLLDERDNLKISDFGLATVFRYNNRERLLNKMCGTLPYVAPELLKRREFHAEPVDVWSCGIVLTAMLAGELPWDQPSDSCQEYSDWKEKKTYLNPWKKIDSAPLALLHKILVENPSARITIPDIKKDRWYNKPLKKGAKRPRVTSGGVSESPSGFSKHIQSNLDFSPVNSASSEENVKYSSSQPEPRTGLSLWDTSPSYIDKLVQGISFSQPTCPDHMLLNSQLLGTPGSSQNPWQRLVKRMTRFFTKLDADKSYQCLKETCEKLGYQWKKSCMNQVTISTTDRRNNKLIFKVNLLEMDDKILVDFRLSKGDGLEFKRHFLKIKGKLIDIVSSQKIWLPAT

[3] = molecular target: Tyrosine-protein kinase CSK (Homo sapiens) (UniProt P41240); assay: Selectivity interaction (KinomeScan (DiscoverX)) EUB0000666a CSK; conditions: at 10 µM
[4] = molecular target: T2, Protein kinase C epsilon type (Homo sapiens) (UniProt Q02156); assay: Selectivity interaction (KinomeScan (DiscoverX)) EUB0000311b PRKCE; conditions: at 1 µM
T2 sequence (whole entry): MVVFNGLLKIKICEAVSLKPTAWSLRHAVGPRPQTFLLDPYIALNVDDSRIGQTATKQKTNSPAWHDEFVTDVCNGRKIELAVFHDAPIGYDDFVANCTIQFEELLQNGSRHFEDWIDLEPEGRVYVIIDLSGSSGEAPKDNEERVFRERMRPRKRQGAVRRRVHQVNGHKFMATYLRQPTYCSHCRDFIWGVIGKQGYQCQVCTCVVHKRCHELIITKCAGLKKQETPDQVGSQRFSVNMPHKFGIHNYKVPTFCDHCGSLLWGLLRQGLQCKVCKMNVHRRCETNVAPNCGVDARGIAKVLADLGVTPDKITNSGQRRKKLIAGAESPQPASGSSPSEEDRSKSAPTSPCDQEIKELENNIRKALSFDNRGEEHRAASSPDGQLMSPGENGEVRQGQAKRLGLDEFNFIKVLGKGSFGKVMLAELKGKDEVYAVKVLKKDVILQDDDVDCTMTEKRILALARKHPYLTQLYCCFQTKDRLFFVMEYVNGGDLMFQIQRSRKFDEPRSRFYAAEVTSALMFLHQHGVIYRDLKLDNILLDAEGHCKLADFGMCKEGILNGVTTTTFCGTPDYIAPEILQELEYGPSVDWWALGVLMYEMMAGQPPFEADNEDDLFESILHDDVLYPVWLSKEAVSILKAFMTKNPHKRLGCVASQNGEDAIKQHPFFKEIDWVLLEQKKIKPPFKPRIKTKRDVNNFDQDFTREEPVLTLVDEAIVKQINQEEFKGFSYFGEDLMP

[5] = molecular target: SRSF protein kinase 2 (Homo sapiens) (UniProt P78362); assay: Selectivity interaction (SelectScreen profiling (Invitrogen)) EUB0000607a SRPK2; conditions: at 2 µM
[6] = molecular target: Cyclin-dependent kinase 1/cyclin B (Homo sapiens) (UniProt P06493+P14635+Q8WWL7+O95067); assay: Selectivity interaction (Upstate Kinase Profiler service (Millipore)) EUB0000056c CDK1; format: protein-complex assay; conditions: at 1 µM
[7] = molecular target: Platelet-derived growth factor receptor beta (Homo sapiens, UniProt P09619); assay: Selectivity interaction (KinomeScan (DiscoverX)) EUB0000699a PDGFRB; conditions: at 10 µM
[8] = molecular target: Tyrosine-protein kinase ABL1 (Homo sapiens, UniProt P00519); assay: Selectivity interaction (Kinase panel (Invitrogen)) EUB0000639a ABL1; conditions: at 200 nM
[9] = molecular target: T3, Phosphatidylinositol 4,5-bisphosphate 3-kinase catalytic subunit delta isoform (Homo sapiens) (UniProt O00329); assay: Selectivity interaction (ActivX KiNativ screen (kinase selectivity in THP-1 cell lysates)) EUB0000639a PIK3CD; format: subcellular; conditions: lysate, at 0.2 µM
T3 sequence (whole entry): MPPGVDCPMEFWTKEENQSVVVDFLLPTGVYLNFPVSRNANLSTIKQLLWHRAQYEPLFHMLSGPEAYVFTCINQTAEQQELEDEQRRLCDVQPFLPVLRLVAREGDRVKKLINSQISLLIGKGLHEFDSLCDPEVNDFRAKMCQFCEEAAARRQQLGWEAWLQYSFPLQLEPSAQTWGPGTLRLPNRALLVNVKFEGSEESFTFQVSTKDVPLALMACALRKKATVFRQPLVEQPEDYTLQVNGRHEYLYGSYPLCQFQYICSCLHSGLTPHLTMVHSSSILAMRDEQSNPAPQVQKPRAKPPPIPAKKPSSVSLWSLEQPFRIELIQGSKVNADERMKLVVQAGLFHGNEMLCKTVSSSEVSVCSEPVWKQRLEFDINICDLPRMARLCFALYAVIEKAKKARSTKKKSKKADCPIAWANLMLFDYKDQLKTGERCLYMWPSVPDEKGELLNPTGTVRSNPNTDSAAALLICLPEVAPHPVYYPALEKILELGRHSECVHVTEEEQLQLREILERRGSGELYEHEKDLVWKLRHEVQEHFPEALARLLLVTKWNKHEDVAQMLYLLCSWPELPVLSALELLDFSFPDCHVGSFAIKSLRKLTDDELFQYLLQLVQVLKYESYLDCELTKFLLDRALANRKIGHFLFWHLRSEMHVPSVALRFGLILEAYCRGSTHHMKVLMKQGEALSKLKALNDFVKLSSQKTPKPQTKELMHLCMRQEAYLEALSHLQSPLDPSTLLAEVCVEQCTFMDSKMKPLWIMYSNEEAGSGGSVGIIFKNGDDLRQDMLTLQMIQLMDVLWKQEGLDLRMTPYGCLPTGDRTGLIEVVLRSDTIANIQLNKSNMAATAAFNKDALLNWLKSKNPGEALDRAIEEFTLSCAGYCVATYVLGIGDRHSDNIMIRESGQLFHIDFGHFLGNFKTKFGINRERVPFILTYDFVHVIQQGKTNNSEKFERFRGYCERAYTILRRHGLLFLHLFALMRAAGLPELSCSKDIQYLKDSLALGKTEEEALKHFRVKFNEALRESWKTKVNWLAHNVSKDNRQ

Mu-type opioid receptor = Mu-type opioid receptor (Homo sapiens, UniProt P35372); assay: Selectivity interaction (GPCR panel (PDSP screen)) EUB0001079a OPRM1; conditions: at 10 µM
[10] = molecular target: Vascular endothelial growth factor receptor 2 (Homo sapiens, UniProt P35968); assay: Selectivity interaction (KinomeScan (DiscoverX)) EUB0001619a KDR; conditions: at 1 µM
[11] = molecular target: Tyrosine-protein kinase receptor Tie-1 (Homo sapiens) (UniProt P35590); assay: Selectivity interaction (KinomeScan (DiscoverX)) EUB0001619a TIE1; conditions: at 1 µM
Chain of Tyrosine-protein kinase receptor Tie-1 (Homo sapiens) (P35590 whole entry): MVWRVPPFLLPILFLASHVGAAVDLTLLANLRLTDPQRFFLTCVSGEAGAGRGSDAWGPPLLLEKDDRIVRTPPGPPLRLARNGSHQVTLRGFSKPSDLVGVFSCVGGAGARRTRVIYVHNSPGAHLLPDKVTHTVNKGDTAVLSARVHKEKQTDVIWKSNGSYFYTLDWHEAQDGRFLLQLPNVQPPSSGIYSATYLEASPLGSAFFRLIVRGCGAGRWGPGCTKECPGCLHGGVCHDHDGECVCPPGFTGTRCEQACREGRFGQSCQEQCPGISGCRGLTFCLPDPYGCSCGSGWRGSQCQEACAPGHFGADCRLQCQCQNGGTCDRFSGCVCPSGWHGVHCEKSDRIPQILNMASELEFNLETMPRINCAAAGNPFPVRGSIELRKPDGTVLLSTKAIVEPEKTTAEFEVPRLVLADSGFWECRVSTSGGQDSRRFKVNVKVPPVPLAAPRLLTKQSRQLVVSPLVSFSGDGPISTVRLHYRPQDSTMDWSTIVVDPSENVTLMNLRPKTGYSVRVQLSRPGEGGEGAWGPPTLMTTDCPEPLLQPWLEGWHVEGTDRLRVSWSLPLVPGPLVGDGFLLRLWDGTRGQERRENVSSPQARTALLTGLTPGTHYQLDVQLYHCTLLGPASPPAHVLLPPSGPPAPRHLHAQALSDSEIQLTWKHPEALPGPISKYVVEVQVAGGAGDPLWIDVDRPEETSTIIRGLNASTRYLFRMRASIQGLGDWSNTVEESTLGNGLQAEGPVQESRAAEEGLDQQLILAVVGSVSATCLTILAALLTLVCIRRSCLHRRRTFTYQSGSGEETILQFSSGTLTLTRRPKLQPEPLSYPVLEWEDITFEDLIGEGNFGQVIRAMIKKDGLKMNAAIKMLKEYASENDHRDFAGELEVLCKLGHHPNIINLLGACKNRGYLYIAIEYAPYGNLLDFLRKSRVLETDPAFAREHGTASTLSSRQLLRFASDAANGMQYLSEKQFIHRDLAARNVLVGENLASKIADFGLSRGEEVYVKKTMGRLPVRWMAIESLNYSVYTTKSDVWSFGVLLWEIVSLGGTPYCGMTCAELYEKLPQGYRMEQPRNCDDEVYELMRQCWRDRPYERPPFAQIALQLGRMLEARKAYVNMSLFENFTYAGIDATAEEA

Chain of Tyrosine-protein kinase ABL1 (P00519 whole entry, canonical isoform): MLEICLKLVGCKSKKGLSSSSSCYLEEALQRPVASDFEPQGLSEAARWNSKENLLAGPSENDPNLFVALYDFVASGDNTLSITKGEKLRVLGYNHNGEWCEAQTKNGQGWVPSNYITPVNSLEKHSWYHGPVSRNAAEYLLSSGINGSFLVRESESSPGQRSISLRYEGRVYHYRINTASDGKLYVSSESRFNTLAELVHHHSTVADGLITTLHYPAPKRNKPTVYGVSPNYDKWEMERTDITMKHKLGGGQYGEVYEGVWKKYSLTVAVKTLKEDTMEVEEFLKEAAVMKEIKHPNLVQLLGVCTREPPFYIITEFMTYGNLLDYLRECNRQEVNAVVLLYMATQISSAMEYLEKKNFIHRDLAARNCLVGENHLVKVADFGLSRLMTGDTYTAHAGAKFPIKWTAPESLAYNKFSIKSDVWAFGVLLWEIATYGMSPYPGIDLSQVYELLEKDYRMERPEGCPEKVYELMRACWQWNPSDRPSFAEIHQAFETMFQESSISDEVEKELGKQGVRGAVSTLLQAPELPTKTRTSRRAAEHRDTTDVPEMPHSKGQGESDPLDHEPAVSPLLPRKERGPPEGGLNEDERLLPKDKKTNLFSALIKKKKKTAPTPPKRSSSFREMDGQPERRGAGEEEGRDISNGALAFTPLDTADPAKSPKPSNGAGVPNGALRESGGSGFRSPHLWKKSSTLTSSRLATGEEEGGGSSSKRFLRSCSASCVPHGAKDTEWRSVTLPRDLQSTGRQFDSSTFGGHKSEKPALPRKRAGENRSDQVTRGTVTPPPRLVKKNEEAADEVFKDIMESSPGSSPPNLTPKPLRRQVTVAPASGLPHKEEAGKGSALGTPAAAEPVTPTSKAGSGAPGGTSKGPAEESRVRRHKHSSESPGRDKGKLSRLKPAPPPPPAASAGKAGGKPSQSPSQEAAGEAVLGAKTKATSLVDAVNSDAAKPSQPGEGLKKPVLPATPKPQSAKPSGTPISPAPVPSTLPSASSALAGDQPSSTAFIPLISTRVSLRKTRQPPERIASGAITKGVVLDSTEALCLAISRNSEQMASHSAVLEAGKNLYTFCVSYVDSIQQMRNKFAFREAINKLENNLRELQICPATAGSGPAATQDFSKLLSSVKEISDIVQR
Chain of Cyclin-dependent kinase 13 (Q14004 whole entry, looked up): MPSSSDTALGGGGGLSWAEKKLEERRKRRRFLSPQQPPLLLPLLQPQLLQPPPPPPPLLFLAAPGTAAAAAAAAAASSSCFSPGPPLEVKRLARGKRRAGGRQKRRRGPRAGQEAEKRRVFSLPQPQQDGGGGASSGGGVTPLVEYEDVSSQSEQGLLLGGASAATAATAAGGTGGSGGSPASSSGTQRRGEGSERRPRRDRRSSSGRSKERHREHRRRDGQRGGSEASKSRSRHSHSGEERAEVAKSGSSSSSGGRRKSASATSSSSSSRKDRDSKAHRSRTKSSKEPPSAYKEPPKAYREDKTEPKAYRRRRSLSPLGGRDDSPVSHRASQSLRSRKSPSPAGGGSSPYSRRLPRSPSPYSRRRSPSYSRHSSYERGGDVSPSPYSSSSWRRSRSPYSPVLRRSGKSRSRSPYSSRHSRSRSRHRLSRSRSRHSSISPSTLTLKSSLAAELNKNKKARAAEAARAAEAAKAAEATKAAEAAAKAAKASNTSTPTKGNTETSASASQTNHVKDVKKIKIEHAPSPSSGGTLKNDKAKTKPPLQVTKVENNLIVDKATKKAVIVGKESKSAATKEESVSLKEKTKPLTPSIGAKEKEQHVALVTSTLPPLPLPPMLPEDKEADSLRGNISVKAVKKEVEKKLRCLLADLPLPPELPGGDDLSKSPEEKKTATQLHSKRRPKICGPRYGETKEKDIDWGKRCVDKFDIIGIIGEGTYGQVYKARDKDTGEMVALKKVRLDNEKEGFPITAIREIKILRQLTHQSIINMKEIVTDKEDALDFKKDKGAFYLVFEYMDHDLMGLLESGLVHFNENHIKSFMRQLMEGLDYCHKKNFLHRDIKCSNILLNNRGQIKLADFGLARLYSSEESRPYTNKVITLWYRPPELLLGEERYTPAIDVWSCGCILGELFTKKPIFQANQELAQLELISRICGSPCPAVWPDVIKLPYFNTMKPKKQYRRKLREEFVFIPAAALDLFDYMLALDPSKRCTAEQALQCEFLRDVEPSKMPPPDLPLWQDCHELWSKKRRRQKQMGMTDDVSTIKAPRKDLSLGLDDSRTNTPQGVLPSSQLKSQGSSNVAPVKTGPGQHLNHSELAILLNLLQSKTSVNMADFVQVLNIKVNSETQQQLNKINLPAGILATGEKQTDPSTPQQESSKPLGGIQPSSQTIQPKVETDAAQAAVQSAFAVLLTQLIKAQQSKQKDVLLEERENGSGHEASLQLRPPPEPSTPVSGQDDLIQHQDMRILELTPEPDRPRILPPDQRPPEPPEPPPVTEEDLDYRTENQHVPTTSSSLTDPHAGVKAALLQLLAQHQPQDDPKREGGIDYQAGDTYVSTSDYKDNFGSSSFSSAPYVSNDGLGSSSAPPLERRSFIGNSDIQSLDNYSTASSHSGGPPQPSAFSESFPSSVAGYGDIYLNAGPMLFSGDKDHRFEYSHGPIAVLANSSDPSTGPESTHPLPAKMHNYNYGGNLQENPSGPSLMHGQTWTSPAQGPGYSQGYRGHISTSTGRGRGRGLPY
Chain of Vascular endothelial growth factor receptor 2 (P35968 whole entry): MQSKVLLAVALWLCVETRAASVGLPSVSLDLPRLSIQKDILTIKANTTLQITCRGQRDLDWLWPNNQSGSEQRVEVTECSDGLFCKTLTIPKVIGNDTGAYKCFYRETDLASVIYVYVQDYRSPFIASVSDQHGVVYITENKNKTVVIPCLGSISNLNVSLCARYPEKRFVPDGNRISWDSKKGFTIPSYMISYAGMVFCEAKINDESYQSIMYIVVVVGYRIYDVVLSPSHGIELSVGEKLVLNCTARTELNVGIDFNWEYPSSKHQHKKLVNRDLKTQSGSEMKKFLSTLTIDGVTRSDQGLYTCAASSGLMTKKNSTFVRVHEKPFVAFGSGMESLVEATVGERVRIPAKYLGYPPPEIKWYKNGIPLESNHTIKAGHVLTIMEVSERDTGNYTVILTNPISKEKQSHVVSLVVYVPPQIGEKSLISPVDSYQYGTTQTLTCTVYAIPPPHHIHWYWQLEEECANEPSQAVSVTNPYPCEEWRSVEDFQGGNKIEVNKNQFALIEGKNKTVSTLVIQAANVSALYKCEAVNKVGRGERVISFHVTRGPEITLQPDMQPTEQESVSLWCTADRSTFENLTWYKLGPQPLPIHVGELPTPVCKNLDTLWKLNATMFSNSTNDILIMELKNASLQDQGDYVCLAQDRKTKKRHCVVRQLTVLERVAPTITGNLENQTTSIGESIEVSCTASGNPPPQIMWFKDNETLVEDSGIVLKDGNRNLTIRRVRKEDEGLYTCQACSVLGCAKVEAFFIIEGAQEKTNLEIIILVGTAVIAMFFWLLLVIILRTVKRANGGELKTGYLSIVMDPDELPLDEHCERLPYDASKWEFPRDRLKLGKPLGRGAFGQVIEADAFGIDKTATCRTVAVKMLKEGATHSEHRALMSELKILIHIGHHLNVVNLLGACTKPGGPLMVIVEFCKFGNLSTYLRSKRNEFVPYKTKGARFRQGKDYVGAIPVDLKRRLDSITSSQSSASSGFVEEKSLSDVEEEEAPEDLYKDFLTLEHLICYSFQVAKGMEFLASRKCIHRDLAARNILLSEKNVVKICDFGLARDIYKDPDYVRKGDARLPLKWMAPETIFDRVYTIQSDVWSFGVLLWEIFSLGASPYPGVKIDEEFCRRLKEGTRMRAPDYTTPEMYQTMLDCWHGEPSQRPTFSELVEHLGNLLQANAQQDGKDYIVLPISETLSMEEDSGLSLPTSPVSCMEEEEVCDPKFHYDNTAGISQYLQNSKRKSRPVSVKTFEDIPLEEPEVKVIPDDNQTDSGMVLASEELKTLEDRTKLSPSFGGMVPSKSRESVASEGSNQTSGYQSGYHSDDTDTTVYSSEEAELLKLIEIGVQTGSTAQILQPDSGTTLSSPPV

Compound: O=C(NOC[C@H](O)CO)c1ccc(F)c(F)c1Nc1ccc(I)cc1F
% of control [1]: 84%
% of control [2]: 74%
% of control [3]: 100%

% of control [4]: 19%
Compound: CCc1ccccc1C(=O)Nc1n[nH]c2c(C)c(F)c(C3C(C#N)=C(C)N(C)C(C)=C3C#N)cc12 [BAY-3827]

Compound: CNC(=O)Nc1ccc(-c2nc(N3CC4CCC(C3)O4)c3cnn(C4CCC5(CC4)OCCO5)c3n2)cc1
% of inhibition [5]: 1%

% of inhibition [6]: 68%
Compound: Cc1ccc(-c2ccc3c(ccc4sc5c(c43)NC[C@@H](C)NC5=O)n2)cn1

% of control [7]: 38%
Compound: CCN(CC)CCCCNc1ncc2cc(-c3cc(OC)cc(OC)c3)c(NC(=O)NC(C)(C)C)nc2n1

% of inhibition [8]: 1.34%
% of inhibition [9]: 4.7%
Compound: CC[C@@H]1[C@H](F)C(=O)N[C@@H]1COc1nccc2cc(C(N)=O)c(OC)cc12 [ZIMLOVISERTIB]

Compound: Nc1cnc(N2CCc3cc(S(=O)(=O)Nc4c(F)cc(Cl)cc4F)cc(N4CCCC4=O)c32)nc1 [TP-020n]
% of inhibition (Mu-type opioid receptor): -1.31%

Compound: N#Cc1cccc(-c2c[nH]c3ncnc(N4CCOCC4)c23)c1
% of control [10]: 62%
% of control [11]: 80%
